Experimental data published in patent US8258128B2, “Organic compounds” (Novartis AG, priority 2006, dated 2012).
Like-named read-outs stand apart in the source and are kept apart here. Marks after values point to notes of the source that are not given here.

What was measured:
[1] = test system: rat carrageenan edema model; assay: Carrageenan edema in the rat (paw swelling); format: in vivo
Description: Carrageenan edema in the rat: The effects of COMPOUND A are investigated in the carrageenan edema model. In this model an acute paw swelling is induced by the sub-plantar injection of carrageenan. The paw swelling has a duration of approximately 8 hours and is completely resolved at 24 hours. The model is used to assess anti-inflammatory activities of new therapeutics and is also sensitive to drugs such as COX-inhibitors like Diclofenac, which is used as a positive control compound in the model.
Method: Male OFA rats (5 animals/group) are treated orally with COMPOUND A (1, 3 and 9 mg/kg), Diclofenac (3 mg/kg) or vehicle (placebo formulation). One hour later (0 hours) the rats receive a 100 μl intra-plantar injection of a 1% w/v carrageenan solution in 0.9% saline in the hind paw and the diameter of the paw is measured by means of a micro-caliper. The paw diameter measurements are repeated 3 and 5 hours after injection of the carrageenan. Percentage inhibition of paw swelling at 3 and 5 hours is calculated by reference to vehicle treated animals (0% inhibition).
Edema is induced by a sub-plantar injection of carrageenan in the paw of the rat. Paw diameters are measured at the time of carrageenan injection (0 hours) and at 3 and 5 hours. Compounds are administered 1 hour before the carrageenan injection. COMPOUND A was dosed at 1, 3 and 9 mg/kg p.o. and Diclofenac at 3 mg/kg p.o.

[2] = test system: collagen-induced arthritis in the rats; assay: Collagen-induced arthritis in the rats, histological evaluation of hind paws; format: in vivo, rat; conditions: day 11
Description: Method: For this study, COMPOUND A and COX-inhibitor Diclofenac are dissolved in a solvent containing 5% of glucose (5 ml/kg). Compounds are given orally once a day. Female rats of the WAGxBUF/F1 crossbred strain (weight 130 g) are used. The animals are divided into several groups, one placebo group (N=8), and four treatment groups (each N=7-8). Treatment starts on peak of disease (day 0) and continues for 11 days. Swelling is assessed at regular time intervals by measuring the external thickness of the hind paws in the region of the metatarsals using a micro-caliper. Tissue samples for histological evaluation are obtained at the end of the in vivo experiment, 5 h after the last oral dose of COMPOUND A or placebo on day 11.
Hind paws from control arthritic rats (vehicle-treated), taken post-mortem at the end of day 11 of the treatment, obtained relatively high histological scorings compared to histological scores of animals treated with COMPOUND A (0.3, 1, 3 and 9 mg/kg) or Diclofenac (1 mg/kg).

[3] = test system: established Adjuvant-induced arthritis in rats; assay: Established adjuvant-induced arthritis in rats (therapeutic dosing schedule); format: in vivo, rat; conditions: for ED50: Rattus norvegicus, read-out: Estimated ED50
Description: Adjuvant arthritis can be treated using two different dosing schedules; either starting at the time of immunization with adjuvant (prophylactic dosing) or from day 15 when the arthritic response is already established (therapeutic dosing). It is more difficult to inhibit adjuvant arthritis with the therapeutic dosing schedule as compared to the prophylactic schedule. Both versions of adjuvant arthritis are, however, extremely sensitive to the effects of both non-selective COX inhibitors and COX 2 selective inhibitors where 70-90% inhibition of swelling can be achieved at appropriate doses. These models may be predictive for some of the processes thought to be relevant in rheumatoid arthritis.
Method: Female Wistar rats weighing 150-170 g (housed in standard conditions, 5 animals per cage, with food and water ad libitum) are injected i.d. at the base of the tail with 0.1 ml of mineral oil containing 0.6 mg of lyophilized heat-killed Mycobacterium tuberculosis. The rats are treated orally with COMPOUND A or placebo formulation from day 15 to day 22 (therapeutic dosing schedule) or with COMPOUND A from day 0 to day 14 after immunization (prophylactic dosing schedule). At the end of the experiment, the swelling of the tarsal joints is measured by means of a micro-caliper. For the comparison study to Diclofenac both compounds are given from day 15 to day 29 with readouts at day 22 and 29. Percentage inhibition of paw swelling is calculated by reference to placebo treated arthritic animals (0% inhibition) and placebo treated normal animals (100% inhibition). Five animals are used per group. Data are analyzed using Kruskal-Wallis non-parametric ANOVA followed by Dunn's Multiple Comparison test.

[4] = Tolerability relative to effective dose in chronic disease models (general statement); format: in vivo; conditions: doses more than 10 times higher than the effective dose in chronic disease models
[5] = 0.3 mg/kg/day p.o., 7 day treatment (Table 7)
[6] = 1 mg/kg/day p.o., 7 day treatment (Table 7)
[7] = 1.25 mg/kg/day p.o., 7 days treatment, readout day 22 (Table 8)
[8] = 1.25 mg/kg/day p.o., 14 days treatment, readout day 29 (Table 8)
[9] = 2.5 mg/kg/day p.o., 7 days treatment, readout day 22 (Table 8)
[10] = 2.5 mg/kg/day p.o., 14 days treatment, readout day 29 (Table 8)
[11] = 3 mg/kg/day p.o., 7 day treatment (Table 7)
[12] = 5 mg/kg/day p.o., 7 days treatment, readout day 22 (Table 8)

COC1=Nc2cc(Cl)ccc2/C(=C/C(=O)O)c2sc(Cl)cc21 [COMPOUND A, [2,7-Dichloro-10-methoxy-3-thia-9-aza-benzo[f]azulen-(4Z)-ylidene]-acetic acid]
% inhibition of paw swelling ([1]; 1 mg/kg p.o., 3 hrs after carrageenan): 58%
% inhibition of paw swelling ([1]; 1 mg/kg p.o., 5 hrs after carrageenan): 65%
% inhibition of paw swelling ([1]; 3 mg/kg p.o., 3 hrs after carrageenan): 67%
% inhibition of paw swelling ([1]; 3 mg/kg p.o., 5 hrs after carrageenan): 48%
% inhibition of paw swelling ([1]; 9 mg/kg p.o., 3 hrs after carrageenan): 88%
% inhibition of paw swelling ([1]; 9 mg/kg p.o., 5 hrs after carrageenan): 74%
inhibition in the carrageenan edema model (in words) ([1]; after 3 and 5 hours, dose of 1 to 9 mg/kg): dose-related inhibition
Bone apposition, effect on histological score ([2]; 0.3 mg/kg/day p.o.): +4%
Cartilage damage, effect on histological score ([2]; 0.3 mg/kg/day p.o.): −6%
Infiltration of cells, effect on histological score ([2]; 0.3 mg/kg/day p.o.): +8%
Loss of PG, effect on histological score ([2]; 0.3 mg/kg/day p.o.): +1%
Bone apposition, effect on histological score ([2]; 1 mg/kg/day p.o.): −28%
Cartilage damage, effect on histological score ([2]; 1 mg/kg/day p.o.): −24%
Infiltration of cells, effect on histological score ([2]; 1 mg/kg/day p.o.): −7%
Loss of PG, effect on histological score ([2]; 1 mg/kg/day p.o.): −13%
Bone apposition, effect on histological score ([2]; 3 mg/kg/day p.o.): −35% *
Cartilage damage, effect on histological score ([2]; 3 mg/kg/day p.o.): −40% *
Infiltration of cells, effect on histological score ([2]; 3 mg/kg/day p.o.): −25%
Loss of PG, effect on histological score ([2]; 3 mg/kg/day p.o.): −28% *
Bone apposition, effect on histological score ([2]; 9 mg/kg/day p.o.): −51% **
Cartilage damage, effect on histological score ([2]; 9 mg/kg/day p.o.): −56% ***
Infiltration of cells, effect on histological score ([2]; 9 mg/kg/day p.o.): −34% **
Loss of PG, effect on histological score ([2]; 9 mg/kg/day p.o.): −40% *
% inhibition [3, 5]: 15.8 * %
Swelling (mm) ± S.D. [3, 5]: 6.79 ± 0.9 mm
% inhibition [3, 6]: 39.0 * %
Swelling (mm) ± S.D. [3, 6]: 4.92 ± 0.63 mm
% inhibition [3, 7]: 51.0 * %
Swelling (mm) ± S.D. [3, 7]: 4.22 ± 0.57 mm
% inhibition [3, 8]: 60.3 * %
Swelling (mm) ± S.D. [3, 8]: 3.06 ± 0.63 mm
% inhibition [3, 9]: 60.5 * %
Swelling (mm) ± S.D. [3, 9]: 3.40 ± 0.92 mm
% inhibition [3, 10]: 62.0 * %
Swelling (mm) ± S.D. [3, 10]: 2.93 ± 0.80 mm
% inhibition [3, 11]: 45.0 * %
Swelling (mm) ± S.D. [3, 11]: 4.41 ± 0.59 mm
% inhibition [3, 12]: 65.0 * %
Swelling (mm) ± S.D. [3, 12]: 2.94 ± 1.28 mm
Swelling (mm) ± S.D. ([3]; 5 mg/kg/day p.o., 14 days treatment, readout day 29 (Table 8)): 2.23 ± 0.66 mm
Swelling (mm) ± S.D. ([3]; 9 mg/kg/day p.o., 7 day treatment (Table 7)): 2.84 ± 0.73 mm
ED50 ([3]; 336 h, 2 week treatment schedule): < 1.25 mg/kg
ED50 ([3]; po, 168 h, p.o., one week treatment schedule): ≤ 1.25 mg/kg
tolerability [4]: very well tolerated
